Source: ChEMBL document CHEMBL4138144, “Biochemometrics to Identify Synergists and Additives from Botanical Medicines: A Case Study with Hydrastis canadensis (Goldenseal)” (J Nat Prod, 2018)
The source made the active and inactive calls. The rule behind the calls is not given here.

What was measured:
Staphylococcus aureus [1] = test: Potentiation of berberin induced antibacterial activity against Staphylococcus aureus SA1199 assessed as berberin MIC at 201.4 uM (reference value: 238 microM); type: functional
Staphylococcus aureus [2] = test: Antibacterial activity against Staphylococcus aureus SA1199 at 201.4 to 402.8 uM after 18 hrs by CLSI method; type: functional, organism-based
Staphylococcus aureus [3] = test: Potentiation of berberin induced antibacterial activity against Staphylococcus aureus SA1199 assessed as berberin MIC at 200 uM (reference value: 238 microM); type: functional

Row | MIC (Staphylococcus aureus [1]) [µM] | MIC (Staphylococcus aureus [3]) [µM] | SMILES | Activity (Staphylococcus aureus [2])
1 | 179 |  | COc1ccc(-c2oc3c(C)c(OC)c(C)c(OC)c3c(=O)c2O)cc1O | inactive
2 |  | 119 | O=C(/C=C/C=C/c1ccc2c(c1)OCO2)N1CCCCC1 [PIPERINE] | 
